Reference: publication PMC5915369 (Anticancer research, 2015)

Columns and labels:
[1] = tested on: HIF1α transcriptional activity; format: cell-based; details: Homo sapiens, 24 h, read-out: Menu IC50 ± SEM
[2] = tested on: platelet aggregation; details: could lead to internal bleeding side effects; cited from earlier work

| Structure (SMILES) | IC50 [1] [nM] | inhibition of platelet aggregation [2] |
| --- | --- | --- |
| CN1C(=O)[C@]2(Cc3cn([C@]45C[C@@]67SS[C@@](CO)(C(=O)N6[C@H]4Nc4ccccc45)N(C)C7=O)c4ccccc34)SS[C@@]1(CO)C(=O)N2C [Chetomin] | 40 ± 10 | – |
| OCc1ccc(-c2nn(Cc3ccccc3)c3ccccc23)o1 [YC-1, 3-(5′-hydroxymethyl-2′-furyl)-1-benzyl indazole] | – | strong inhibition of platelet aggregation |
